{"source": "patent US20160120840A1", "about": "“METHOD AND COMPOSITION FOR TREATING NONEROSIVE REFLUX DISEASE” (SUCAMPO AG, priority 2014, published 2016)", "key": {"claudin-2": {"system": "claudin-2", "assay": "Quantitative real-time RT-PCR, claudin-2 expression in mouse esophagus tissue", "assay_type": "in vivo", "details": "6 days, TCA/DCA with 50 μM Compound A in drinking water, n=3; FIG. 3", "method": "(§1) mRNA was prepared from mouse esophagus tissue after 6 days of treatment with vehicle or active agents (Group1:DMSO control, Group2:TCA/DCA positive control, and Group3:TCA/DCTA with 50 μM Compound A in drinking water, n=3 in each group) and reversely transcribed to cDNA by reverse transcriptase (Superscript III, Invitrogen).\n(§2) Expression levels of claudin-2 which is expressed in cation-leaky epithelia, and claudin-4 which is a component of tight junction strands (PNAS 107(17), 8011-8016, 2010; Development Biology 312, 509-522, 2007; and Seminars in Cell & Developmental Biology 36 166-176, 2014), were normalized to GAPDH expression by calculating the A Ct=(Ct of GAPDH−Ct of gene). Setting the expression value of GAPDH to 1.0, the relative expression values were then calculated as 2̂ΔCt."}, "claudin-4": {"system": "claudin-4", "assay": "Quantitative real-time RT-PCR, claudin-4 expression in mouse esophagus tissue", "assay_type": "in vivo", "details": "6 days, TCA/DCA with 50 μM Compound A in drinking water, n=3; FIG. 4", "method": "as §1, §2"}, "[1]": {"system": "mouse esophageal tissues (epithelial layer)", "assay": "HE staining of mouse esophageal tissues", "assay_type": "in vivo", "details": "6 days of treatment, Compound A with TCA/DCA; FIG. 2", "source_text": "The mouse esophageal tissues were isolated after 6 days of treatment with control vehicle or drugs (DMSO, TCA/DCA, or Compound A with TCA/DCA). The tissues were separated into two parts, and their lower parts were used for preparation of RT-PCR samples as well as for electrophysiological examination and HE staining. The samples for HE staining were fixed with 10% neutral buffered formalin solution for 12 hrs, after which they were dehydrated and fixed in paraffin. The samples were sliced into 7 μm thick slices in a microtome, and then placed on slide glasses at 43° C. for lhr and then at 55° C. overnight. Following this, tissues were stained with Hematoxylin and Eosin staining solution. The samples were evaluated in a suitable microscope (Olympus EX-43)."}, "[2]": {"system": "esophagus tissues (non-erosive esophageal damage induced by TCA and DCA)", "assay": "Effect on non-erosive esophageal damage: tissue conductance of esophagus in Ussing chamber after TCA+DCA treatment", "assay_type": "in vivo, C57Bl/6J mice", "details": "mice given 4 mM TCA and 2 mM DCA in drinking water for 6 days, Compound A in drinking water for the same period; versus TCA+DCA control; FIG. 1", "method": "Effect on non-erosive esophageal damage Male or female C57Bl/6J mice were allowed free access to drinking tap water containing 4 mM taurocholic acid (TCA) and 2 mM deoxycholic acid (DCA) for 6 days. On the day after treatment with TCA and DCA, the mice were sacrificed and their esophagus was removed. The esophagus tissues were divided into two parts and distal parts were used for the study. Each tissue was mounted in the Ussing chamber and short-circuit currents were measured. Compound A ((−)-7-{(2R,4aR,5R,7aR)-2-[(3S)-1,1-difluoro-3-methylpentyl]-2-hydroxy-6-oxooctahydrocyclopenta[b]pyran-5-yl}heptanoic acid) was administered to mice in drinking water for the same period of TCA+DCA treatment. Tissue conductance calculated based on the short-circuit current data was used as an index of tissue damage."}}}
{"smiles": "CC[C@H](C)CC(F)(F)[C@@]1(O)CC[C@H]2[C@@H](CC(=O)[C@@H]2CCCCCCC(=O)O)O1", "note": "[Compound A, (−)-7-{(2R,4aR,5R,7aR)-2-[(3S)-1,1-difluoro-3-methylpentyl]-2-hydroxy-6-oxooctahydrocyclopenta[b]pyran-5-yl}heptanoic acid]", "values": [{"measurement": "Expression level of claudin-2 (normalized to GAPDH)", "setting": "claudin-2", "value": "downregulated"}, {"measurement": "Expression level of claudin-4 (normalized to GAPDH)", "setting": "claudin-4", "value": "upregulated"}, {"measurement": "Tissue structure (HE staining), damage of epithelial layer by bile acids", "setting": "[1]", "value": "restores or protects against damage by bile acids histologically"}, {"measurement": "Tissue conductance (index of tissue damage)", "setting": "[2]", "value": "reduced from that found in control animals"}]}
